Test system: modified version of the GPR119 receptor (94% identity to human receptor)
Assay: cAMP production assay (LANCE cAMP kit, TR-FRET) in HEK-293 cells
Assay type: cell-based
Details: for cAMP production in HEK-293 cells: HEK-293 cells stably expressing modified GPR119, test compounds 0.2 nM to 10 μM, one-hour incubation; for Fold over baseline: increase in cAMP relative to basal levels, agonist activity if 1.5-fold or greater
Outline: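 Agonist activity meant a 1.5-fold or greater cAMP rise over basal, with levels interpolated from a standard curve after TR-FRET competition read-out. HEK-293 cells with tetracycline-inducible modified GPR119 (1 μg/mL doxycycline overnight) were incubated one hour at ambient temperature with 0.2 nM to 10 μM compound, 0.5% DMSO.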

SMILES	cAMP production in HEK-293 cells	Fold over baseline
Cn1nccc1-c1nsc(N2CCC(N3CC[C@H](Oc4ccc(S(C)(=O)=O)cc4F)C3=O)CC2)n1 [Example 72, (S)-3-(2-fluoro-4-(methylsulfonyl)phenoxy)-1-(1-(3-(1-methyl-1H-pyrazol-5-yl)-1,2,4-thiadiazol-5-yl)piperidin-4-yl)pyrrolidin-2-one]	10.6 nmol	2.9
Cn1cc(-c2nsc(N3CCC(N4CC[C@H](Oc5ccc(S(C)(=O)=O)cc5F)C4=O)CC3)n2)cn1 [Example 73, (S)-3-(2-fluoro-4-(methylsulfonyl)phenoxy)-1-(1-(3-(1-methyl-1H-pyrazol-4-yl)-1,2,4-thiadiazol-5-yl)piperidin-4-yl)pyrrolidin-2-one]	6.2 nmol	2.2
CS(=O)(=O)c1ccc(O[C@H]2CCN(C3CCN(c4nc(Oc5ccccc5)ns4)CC3)C2=O)c(F)c1 [Example 74, (S)-3-(2-fluoro-4-(methylsulfonyl)phenoxy)-1-(1-(3-phenoxy-1,2,4-thiadiazol-5-yl)piperidin-4-yl)pyrrolidin-2-one]	15.3 nmol	4.2
Cc1nn(C)c(Oc2nsc(N3CCC(N4CC[C@H](Oc5ccc(S(C)(=O)=O)cc5F)C4=O)CC3)n2)c1C [Example 75, (S)-3-(2-fluoro-4-(methylsulfonyl)phenoxy)-1-(1-(3-(1,3,4-trimethyl-1H-pyrazol-5-yloxy)-1,2,4-thiadiazol-5-yl)piperidin-4-yl)pyrrolidin-2-one]	6.9 nmol	2.7
Cc1ncccc1Oc1nsc(N2CCC(N3CC[C@H](Oc4ccc(S(C)(=O)=O)cc4F)C3=O)CC2)n1 [Example 76, (S)-3-(2-fluoro-4-(methylsulfonyl)phenoxy)-1-(1-(3-(2-methylpyridin-3-yloxy)-1,2,4-thiadiazol-5-yl)piperidin-4-yl)pyrrolidin-2-one]	5.7 nmol	2.5
CC(C)c1nsc(N2CCC(N3CCC(Oc4ccc(C(=O)NCCO)cc4F)C3=O)CC2)n1.Cl (centres unmarked) [Example 77, 3-Fluoro-N-(2-hydroxyethyl)-4-(1-(1-(3-isopropyl-1,2,4-thiadiazol-5-yl)piperidin-4-yl)-2-oxopyrrolidin-3-yloxy)benzamide hydrochloride]	15.1 nmol	2.8
CC(C)c1nsc(N2CCC(N3CCC(Oc4ccc(C(=O)N(C)CCN(C)C)cc4F)C3=O)CC2)n1 (centres unmarked) [Example 78, N-(2-(dimethylamino)ethyl)-3-fluoro-4-(1-(1-(3-isopropyl-1,2,4-thiadiazol-5-yl)piperidin-4-yl)-2-oxopyrrolidin-3-yloxy)-N-methylbenzamide]	5.0 nmol	1.6
CC(C)c1nsc(N2CCC(N3CCC(Oc4ccc(C(=O)N(C)CCO)cc4F)C3=O)CC2)n1 (centres unmarked) [Example 79, 3-fluoro-N-(2-hydroxyethyl)-4-(1-(1-(3 isopropyl-1,2,4-thiadiazol-5-yl)piperidin-4-yl)-2-oxopyrrolidin-3-yloxy)-N-methylbenzamide]	19.0 nmol	3.2
CC(C)c1nsc(N2CCC(N3CCC(Oc4ccc(C(=O)N(C)CCN)cc4F)C3=O)CC2)n1 (centres unmarked) [Example 80, N-(2-aminoethyl)-3-fluoro-4-(1-(1-(3-isopropyl-1,2,4-thiadiazol-5-yl)piperidin-4-yl)-2-oxopyrrolidin-3-yloxy)-N-methylbenzamide]	16.1 nmol	2.8
CC(C)c1nsc(N2CCC(N3CCC(Oc4ccc(C(=O)NCCN(C)C)cc4F)C3=O)CC2)n1 (centres unmarked) [Example 81, N-(2-(dimethylamino)ethyl)-3 fluoro-4-(1-(1-(3-isopropyl-1,2,4-thiadiazol-5-yl)piperidin-4-yl)-2-oxopyrrolidin-3-yloxy)benzamide]	11.7 nmol	2.4
